# According to PubChem BioAssay (NCI):
#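 These data come from cells grown in 96-well plates and exposed to compound for 48 hours at five concentrations. GI50 marks 50% less growth. TGI: total growth inhibition.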
# Assays:
# Assay in all cases: inhibition of tumour cell growth, NCI panel, 48 h
# [1] = tested on: 786-0 renal
# [2] = tested on: A498 renal
# [3] = tested on: A549 NSCLC
# [4] = tested on: ACHN renal
# [5] = tested on: BT-549 breast
# [6] = tested on: CAKI-1 renal
# [7] = tested on: COLO 205 colon
# [8] = tested on: DU-145 prostate
# [9] = tested on: HCC-2998 colon
# [10] = tested on: HCT-116 colon
# [11] = tested on: HCT-15 colon
# [12] = tested on: HL-60(TB) leukemia
# [13] = tested on: HOP-62 NSCLC
# [14] = tested on: HOP-92 NSCLC
# [15] = tested on: HT29 colon
# [16] = tested on: IGROV1 ovarian
# [17] = tested on: K-562 leukemia
# [18] = tested on: KM12 colon
# [19] = tested on: LOX IMVI melanoma
# [20] = tested on: M14 melanoma
# [21] = tested on: MALME-3M melanoma
# [22] = tested on: MCF7 breast
# [23] = tested on: MDA-MB-231 breast
# [24] = tested on: MDA-MB-435
# [25] = tested on: MOLT-4 leukemia
# [26] = tested on: NCI-H226 lung
# [27] = tested on: NCI-H23 lung
compound,measurement,setting,value
COc1ccc2c(Cl)cc(NC(=O)Nc3c(C)cccc3C)nc2c1,GI50,[1],7.92 µM
same,TGI,[1],> 100 µM
same,GI50,[2],2.9 µM
same,TGI,[2],22.4 µM
same,GI50,[3],6.1 µM
same,TGI,[3],69.4 µM
same,GI50,[4],3.59 µM
same,TGI,[4],24.7 µM
same,GI50,[5],36 µM
same,TGI,[5],> 100 µM
same,GI50,[6],5.27 µM
same,TGI,[6],> 100 µM
same,GI50,[7],46 µM
same,TGI,[7],> 100 µM
same,GI50,[8],28.4 µM
same,TGI,[8],> 100 µM
same,GI50,[9],> 100 µM
same,TGI,[9],> 100 µM
same,GI50,[10],5.72 µM
same,TGI,[10],> 100 µM
same,GI50,[11],27.3 µM
same,TGI,[11],> 100 µM
same,GI50,[12],> 100 µM
same,TGI,[12],> 100 µM
same,GI50,[13],3.91 µM
same,TGI,[13],15.3 µM
same,GI50,[14],4.26 µM
same,TGI,[14],27.4 µM
same,GI50,[15],33.9 µM
same,TGI,[15],> 100 µM
same,GI50,[16],21.9 µM
same,TGI,[16],> 100 µM
same,GI50,[17],60.7 µM
same,TGI,[17],> 100 µM
same,GI50,[18],35.7 µM
same,TGI,[18],> 100 µM
same,GI50,[19],17.3 µM
same,TGI,[19],> 100 µM
same,GI50,[20],31.8 µM
same,TGI,[20],> 100 µM
same,GI50,[21],10.2 µM
same,TGI,[21],58.5 µM
same,GI50,[22],56 µM
same,TGI,[22],> 100 µM
same,GI50,[23],13.3 µM
same,TGI,[23],> 100 µM
same,GI50,[24],13.4 µM
same,TGI,[24],40.5 µM
same,GI50,[25],45.9 µM
same,TGI,[25],> 100 µM
same,GI50,[26],2.29 µM
same,TGI,[26],6.14 µM
same,GI50,[27],76.9 µM
same,TGI,[27],> 100 µM
